Source: the NIST ThermoML archive (doi:10.1016/j.fluid.2019.05.003)

Assay: xn = mol fraction of the nth substance listed
Details: 101 kPa, Liquid; for viscosity: Falling or rolling sphere viscometry; for mass density: Vibrating tube method

O [water] + CC[n+]1ccccc1.[Br-]
x2 = 0
Details	mass density [kg/m3]	viscosity [mPa·s]
298.15 K	–	0.89
303.15 K	–	0.797
308.15 K	–	0.719
313.15 K	–	0.653
318.15 K	990.1	0.596
323.15 K	987.9	0.547
328.15 K	985.6	0.504
333.15 K	983.2	0.466
338.15 K	980.3	0.433
343.15 K	978.1	0.404
348.15 K	974.8	0.378

CC[n+]1ccccc1.[Br-] [1-ethylpyridinium bromide] + O
Details	mass density [kg/m3]	viscosity [mPa·s]
298.15 K, x1 = 0.027	1069.4	1.203
298.15 K, x1 = 0.049	1113.8	1.483
298.15 K, x1 = 0.063	1139.5	1.75
298.15 K, x1 = 0.086	1174.3	2.18
298.15 K, x1 = 0.101	1194.1	2.507
298.15 K, x1 = 0.147	1243.9	3.769
298.15 K, x1 = 0.184	1274.6	5.028
298.15 K, x1 = 0.213	1294.5	6.298
298.15 K, x1 = 0.25	1315.3	8.734
298.15 K, x1 = 0.299	1337	10.5
298.15 K, x1 = 0.341	1352.3	13.33
298.15 K, x1 = 0.401	1370.9	19.65
298.15 K, x1 = 0.451	1381.1	25.82
303.15 K, x1 = 0.027	1067.4	1.071
303.15 K, x1 = 0.049	1111.4	1.339
303.15 K, x1 = 0.063	1137	1.554
303.15 K, x1 = 0.086	1171.6	1.913
303.15 K, x1 = 0.101	1191.2	2.215
303.15 K, x1 = 0.147	1240.8	3.293
303.15 K, x1 = 0.184	1271.3	4.402
303.15 K, x1 = 0.213	1291.1	5.427
303.15 K, x1 = 0.25	1311.9	7.646
303.15 K, x1 = 0.299	1333.6	8.868
303.15 K, x1 = 0.341	1348.8	11.27
303.15 K, x1 = 0.401	1367.4	16.67
303.15 K, x1 = 0.451	1378	21.6
308.15 K, x1 = 0.027	1065.2	0.969
308.15 K, x1 = 0.049	1109	1.207
308.15 K, x1 = 0.063	1134.3	1.393
308.15 K, x1 = 0.086	1168.7	1.728
308.15 K, x1 = 0.101	1188.2	1.966
308.15 K, x1 = 0.147	1237.6	2.911
308.15 K, x1 = 0.184	1268	3.821
308.15 K, x1 = 0.213	1287.7	4.737
308.15 K, x1 = 0.25	1308.5	6.664
308.15 K, x1 = 0.299	1330.2	7.711
308.15 K, x1 = 0.341	1345.4	9.653
308.15 K, x1 = 0.401	1364	14.3
308.15 K, x1 = 0.451	1374.6	18.22
313.15 K, x1 = 0.027	1062.8	0.882
313.15 K, x1 = 0.049	1106.4	1.093
313.15 K, x1 = 0.063	1131.6	1.26
313.15 K, x1 = 0.086	1165.8	1.565
313.15 K, x1 = 0.101	1185.2	1.768
313.15 K, x1 = 0.147	1234.3	2.591
313.15 K, x1 = 0.184	1264.6	3.38
313.15 K, x1 = 0.213	1284.3	4.172
313.15 K, x1 = 0.25	1305	5.814
313.15 K, x1 = 0.299	1326.7	6.713
313.15 K, x1 = 0.341	1341.9	8.366
313.15 K, x1 = 0.401	1360.5	12.27
313.15 K, x1 = 0.451	1371.1	15.47
318.15 K, x1 = 0.027	1061	0.808
318.15 K, x1 = 0.049	1103.7	1.004
318.15 K, x1 = 0.063	1128.8	1.146
318.15 K, x1 = 0.086	1162.8	1.414
318.15 K, x1 = 0.101	1182.1	1.599
318.15 K, x1 = 0.147	1230.9	2.321
318.15 K, x1 = 0.184	1261.3	3.012
318.15 K, x1 = 0.213	1280.9	3.702
318.15 K, x1 = 0.25	1301.6	5.096
318.15 K, x1 = 0.299	1323.3	5.898
318.15 K, x1 = 0.341	1338.5	7.312
318.15 K, x1 = 0.401	1357.1	10.62
318.15 K, x1 = 0.451	1367.7	13.29
323.15 K, x1 = 0.027	1058.9	0.744
323.15 K, x1 = 0.049	1100.6	0.92
323.15 K, x1 = 0.063	1125.8	1.047
323.15 K, x1 = 0.086	1159.7	1.287
323.15 K, x1 = 0.101	1179	1.456
323.15 K, x1 = 0.147	1227.7	2.096
323.15 K, x1 = 0.184	1257.9	2.702
323.15 K, x1 = 0.213	1277.5	3.309
323.15 K, x1 = 0.25	1298.1	4.482
323.15 K, x1 = 0.299	1319.8	5.226
323.15 K, x1 = 0.341	1335	6.446
323.15 K, x1 = 0.401	1353.7	9.272
323.15 K, x1 = 0.451	1364.3	11.53
328.15 K, x1 = 0.027	1056.7	0.695
328.15 K, x1 = 0.049	1097.6	0.846
328.15 K, x1 = 0.063	1122.7	0.961
328.15 K, x1 = 0.086	1156.6	1.18
328.15 K, x1 = 0.101	1175.8	1.332
328.15 K, x1 = 0.147	1224.4	1.9
328.15 K, x1 = 0.184	1254.4	2.439
328.15 K, x1 = 0.213	1274	2.977
328.15 K, x1 = 0.25	1294.7	3.973
328.15 K, x1 = 0.299	1316.3	4.663
328.15 K, x1 = 0.341	1331.6	5.733
328.15 K, x1 = 0.401	1350.2	8.204
328.15 K, x1 = 0.451	1360.8	10.13
333.15 K, x1 = 0.027	1054.6	0.644
333.15 K, x1 = 0.049	1095.3	0.787
333.15 K, x1 = 0.063	1119.5	0.889
333.15 K, x1 = 0.086	1153.8	1.088
333.15 K, x1 = 0.101	1172.5	1.222
333.15 K, x1 = 0.147	1221	1.737
333.15 K, x1 = 0.184	1251	2.216
333.15 K, x1 = 0.213	1270.6	2.698
333.15 K, x1 = 0.25	1291.2	3.554
333.15 K, x1 = 0.299	1312.9	4.186
333.15 K, x1 = 0.341	1328.1	5.129
333.15 K, x1 = 0.401	1346.8	7.29
333.15 K, x1 = 0.451	1357.4	8.99
338.15 K, x1 = 0.027	1052.4	0.612
338.15 K, x1 = 0.049	1092.6	0.734
338.15 K, x1 = 0.063	1116.8	0.825
338.15 K, x1 = 0.086	1150.9	1.006
338.15 K, x1 = 0.101	1169.1	1.118
338.15 K, x1 = 0.147	1217.5	1.582
338.15 K, x1 = 0.184	1247.5	2.019
338.15 K, x1 = 0.213	1267.1	2.42
338.15 K, x1 = 0.25	1287.7	3.118
338.15 K, x1 = 0.299	1309.4	3.788
338.15 K, x1 = 0.341	1324.7	4.616
338.15 K, x1 = 0.401	1343.4	6.5
338.15 K, x1 = 0.451	1354	8.008
343.15 K, x1 = 0.027	1050.3	0.58
343.15 K, x1 = 0.049	1089.9	0.689
343.15 K, x1 = 0.063	1113.8	0.771
343.15 K, x1 = 0.086	1147.9	0.941
343.15 K, x1 = 0.101	1166.3	1.045
343.15 K, x1 = 0.147	1214	1.465
343.15 K, x1 = 0.184	1244	1.855
343.15 K, x1 = 0.213	1263.5	2.245
343.15 K, x1 = 0.25	1284.2	2.805
343.15 K, x1 = 0.299	1305.9	3.416
343.15 K, x1 = 0.341	1321.2	4.159
343.15 K, x1 = 0.401	1339.9	6.011
343.15 K, x1 = 0.451	1350.6	7.3
348.15 K, x1 = 0.027	1048.2	0.549
348.15 K, x1 = 0.049	1087.2	0.649
348.15 K, x1 = 0.063	1110.9	0.724
348.15 K, x1 = 0.086	1144.9	0.886
348.15 K, x1 = 0.101	1163.2	0.982
348.15 K, x1 = 0.147	1211.1	1.355
348.15 K, x1 = 0.184	1240.4	1.706
348.15 K, x1 = 0.213	1260	2.06
348.15 K, x1 = 0.25	1280.6	2.589
348.15 K, x1 = 0.299	1302.4	3.124
348.15 K, x1 = 0.341	1317.7	3.785
348.15 K, x1 = 0.401	1336.5	5.338
348.15 K, x1 = 0.451	1347.1	6.657
